Laboratory results from PubChem BioAssay (NCI).
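Five compound concentrations were applied to cells in 96-well plates for 48 hours; endpoints were derived by simple linear interpolation of the resulting dose-response curve. GI50 = concentration required for 50% inhibition of growth. At the TGI there is no net growth.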 *1 amine or outer side, *2 acyl side, *3 side chain or, on linkers, in order; H or OH if unused. Where a SMILES comes first, the peptide text is derived from it. Bridges are numbered along the chain shown (N, C = ends). Roman numbers before positions name the chains, in order. [ ]: non-standard residue; d: D form. Actinocin(9to1) = Cc1c2oc3c(C)ccc(C(=O)[*:1])c3nc-2c(C(=O)[*:2])c(N)c1=O; NMeV = CN[CH](C(=O)O)C(C)C; Sar = CNCC(=O)O

Legend:
Assay in all cases: growth of human tumour cells (NCI), 48 h
CAKI-1 renal = test system: CAKI-1 renal
CCRF-CEM leukemia = test system: CCRF-CEM leukemia
EKVX NSCLC = test system: EKVX NSCLC
M14 melanoma = test system: M14 melanoma
MCF7 breast = test system: MCF7 breast
NCI-H522 lung = test system: NCI-H522 lung
NCI/ADR-RES ovarian = test system: NCI/ADR-RES ovarian
OVCAR-5 ovarian = test system: OVCAR-5 ovarian
UACC-62 melanoma = test system: UACC-62 melanoma
NCI-H460 lung = test system: NCI-H460 lung

| Compound | TGI (CAKI-1 renal) [µM] | TGI (CCRF-CEM leukemia) [µM] | TGI (EKVX NSCLC) [µM] | TGI (M14 melanoma) [µM] | TGI (MCF7 breast) [µM] | TGI (NCI-H522 lung) [µM] | TGI (NCI/ADR-RES ovarian) [µM] | TGI (OVCAR-5 ovarian) [µM] | TGI (UACC-62 melanoma) [µM] | TGI (NCI-H460 lung) [µM] | GI50 (CAKI-1 renal) [µM] | GI50 (CCRF-CEM leukemia) [µM] | GI50 (EKVX NSCLC) [µM] | GI50 (MCF7 breast) [µM] | GI50 (NCI-H460 lung) [µM] | GI50 (NCI-H522 lung) [µM] | GI50 (NCI/ADR-RES ovarian) [µM] | GI50 (OVCAR-5 ovarian) [µM] | GI50 (UACC-62 melanoma) [µM] |
| --- | --- | --- | --- | --- | --- | --- | --- | --- | --- | --- | --- | --- | --- | --- | --- | --- | --- | --- | --- |
| CCC(C)C(NC(=O)C1CCCN1)C(=O)NC(C(=O)NCC(=O)NC(CC(N)=O)C(=O)NC(CC(C)C)C(=O)NC(CC(C)C)C(=O)NC(CCCCN)C(N)=O)C(C)C (configuration not stated) (H-PIVGNLLK-NH2; configuration not given here) | > 75 | > 75 | > 75 | > 75 | > 75 | > 75 | > 75 | > 75 | > 75 |  |  |  |  |  |  |  |  |  |  |
| O=C1/C(=C/c2cccs2)N=C(c2ccccc2)N1c1nc2ccccc2s1 | > 100 | 0.976 | > 100 | > 100 | > 100 | 17.3 | > 100 | > 100 |  | > 100 |  |  |  |  |  |  |  |  |  |
| Cc1ccc(C(=O)NN=C(/N=N/c2cccc(C)c2)c2ccc(N(C)C)cc2)cc1 | > 100 | > 100 | > 100 | > 100 | > 100 | > 100 | > 100 | > 100 | > 100 | > 100 |  |  |  |  |  |  |  |  |  |
| CCCCN(CCCC)C1=Nc2ccccc2-n2c(nnc2C(=O)OCC)C1 | > 100 | > 100 | > 100 | > 100 | > 100 | > 100 | > 100 | > 100 | > 100 | 89.4 |  |  |  |  |  |  |  |  |  |
| O=C1/C(=C(/Br)I)c2ccccc2-c2ccccc21 | 16.9 | 5.93 | 32.6 | 27.6 | 32.9 | 5.27 | 30.4 | 25.5 | 21.2 | 41.2 |  |  |  |  |  |  |  |  |  |
| CC(=O)OCC1(CNc2nc(N)ncc2C#N)CC(CCc2ccccc2)C1 (configuration not stated) | > 100 | > 100 | > 100 |  | > 100 | > 100 | > 100 | > 100 | > 100 | > 100 |  |  |  |  |  |  |  |  |  |
| CC(=O)NCC1OC2COC(c3ccccc3)OC2C2N=C(c3ccccc3)OC12 (configuration not stated) | > 100 | > 100 | > 100 | > 100 | > 100 |  | > 100 | > 100 | > 100 | > 100 |  |  |  |  |  |  |  |  |  |
| Cc1c2oc3c(C)ccc(C(=O)NC4C(=O)NC(Cc5ccc(O)cc5)C(=O)N5CCCC5C(=O)N(C)CC(=O)N(C)C(C(C)C)C(=O)OC4C)c3nc-2c(C(=O)NC2C(=O)NC(Cc3ccc(O)cc3)C(=O)N3CCCC3C(=O)N(C)CC(=O)N(C)C(C(C)C)C(=O)OC2C)c(N)c1=O (configuration not stated) (I: TYP[Sar][NMeV] / II: TYP[Sar][NMeV]; ester I:1-I:C, II:1-II:C; linker I:N-II:N via Actinocin(9to1); configuration not given here) | 27.5 |  | > 100 | 28.9 | 14.6 | 45.8 | > 100 | > 43.8 | > 67 | > 100 |  |  |  |  |  |  |  |  |  |
| Cn1c(O)c(/C=N/c2ncccn2)c(=O)[nH]c1=O | > 100 |  | > 100 | > 100 | > 100 | > 100 | > 100 | > 100 | > 100 | > 100 |  |  |  |  |  |  |  |  |  |
| CN1C(=O)C(CCO)(C(C)(C)C)c2ccccc21 (configuration not stated) | > 100 | > 100 | > 100 | > 100 | > 100 |  | > 100 | > 100 | > 100 | > 100 |  |  |  |  |  |  |  |  |  |
| COc1ccc(-c2cc(-c3ccc(OC)c(OC)c3)nc(SCCCC(=O)NO)n2)cc1 | 2.37 | > 100 | > 100 |  | 10.2 | 5.09 | 4.77 | 6.25 | 2.68 | 5.24 | 0.431 | 1.36 | 1.73 | 2.75 | 0.842 | 0.787 | 0.977 | 1.53 | 1.14 |
| O=[N+]([O-])c1cccc([N+](=O)[O-])c1Cl | 7.68 |  | 46.4 | > 100 | > 100 | 29.5 | 57.4 | 43.1 | 42.9 | > 100 |  |  |  |  |  |  |  |  |  |
| c1cc2c3c(c1)[C@@H]1O[C@@H]1c1cccc(c1-3)[C@@H]1O[C@H]21 | 32.7 |  | 34.4 | 34.1 | > 100 | 30.1 | 61.6 | 31.4 | 33.3 |  |  |  |  |  |  |  |  |  |  |
| C/C=C\C(CC(=O)NCCc1c[nH]c2ccccc12)CC(=O)OC (configuration not stated) | > 100 |  | > 100 | > 100 | > 100 | > 100 | > 100 | > 100 | > 100 | > 100 |  |  |  |  |  |  |  |  |  |
| O=C1NC(=S)N/C1=C\c1ccc(Sc2ccccc2C(=O)O)s1 | > 100 |  | > 100 |  | > 100 | 44.4 | > 100 | > 100 | > 100 | > 100 |  |  |  |  |  |  |  |  |  |
| CCOC(=O)c1c(SCCN2CCCCC2)n(-c2ccccc2)c(=S)n(-c2ccccc2)c1=O |  | 11.8 |  | 81.6 | 18.3 | 35.4 | 41.7 | > 100 | 68.9 | > 100 |  |  |  |  |  |  |  |  |  |
| CCOC(=O)COC1=Nc2cc(OC)c(OC)c3nc(Cl)cc(c23)C1=O | 3.58 |  | 1.83 | 3.08 | 3.46 | 3.25 | > 31.4 | 4.11 | 3.17 | 39.3 |  |  |  |  |  |  |  |  |  |
| S=c1oc(CCCCCCCCc2nn(CNc3ccc(Cl)cc3)c(=S)o2)nn1CNc1ccc(Cl)cc1 | > 100 |  | > 100 | > 100 | > 100 | > 100 | > 100 | > 100 | > 100 | > 100 |  |  |  |  |  |  |  |  |  |
| c1ccc2c(c1)ccc1nc(-c3ccc4c(c3)OCO4)c3c(c12)CCC3 | > 100 | > 100 | > 100 | > 100 | > 100 |  | > 100 | > 100 | > 100 | > 100 |  |  |  |  |  |  |  |  |  |
| COc1c(-c2ccc(F)cc2)oc2cc(O)cc(O)c2c1=O | 48.5 | 95.3 | 45.5 | > 100 | > 100 | 44.2 | 63.5 | 80.5 |  | 59.9 |  |  |  |  |  |  |  |  |  |
| CCCCNC(=S)Nc1nc(C(=O)NNC(=S)NCc2ccccc2)cs1 | 90.1 |  | > 100 | > 100 | > 100 | > 100 | > 100 | > 100 | > 100 |  |  |  |  |  |  |  |  |  |  |
